What was measured:
Assay type in all cases: biochemical
JAK1-JH1JH2 = JAK1-JH1JH2 (Homo sapiens (Human), UniProt P23458); test: Enzymatic inhibition assay (RapidFire HTMS), JAK1; details: 12.5 μM ATP, 200 μM substrate; read-out: JAK1-JH2JH1 IC50
In short: (§1)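 Quenched with 0.5% TFA plus internal-standard peptide; phosphorylated product quantified by RapidFire C4 SPE–ESI-MS, 11-point 1:3 or 1:4 dilutions in duplicate.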

JAK2-JH1JH2 = JAK2-JH1JH2 (Homo sapiens (Human), UniProt O60674); test: Enzymatic inhibition assay (RapidFire HTMS), JAK2; details: 30 μM ATP, 40 μM substrate
In short: as §1

Tyk2-JH1JH2 = Tyk2-JH1JH2 (Homo sapiens (Human), UniProt P29597, C1142A/C936A); test: Enzymatic inhibition assay (RapidFire HTMS), Tyk2; details: 50 μM ATP, 200 μM substrate
In short: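 Compounds were tested in duplicate as 11-point 1:3 or 1:4 DMSO dilutions (≤0.25% DMSO final) in 20 μL reactions at 25 °C for 90 min, with Tyk2 pre-incubated 30 min with 2 mM ATP. Reactions were quenched with TFA plus internal standard peptide, and phosphorylated product was quantified by RapidFire C4 SPE–ESI MS.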

JAK3-JH1JH2 = JAK3-JH1JH2 (Homo sapiens (Human), UniProt P52333); test: Enzymatic inhibition assay (RapidFire HTMS), JAK3; details: 150 μM ATP, 40 μM substrate
In short: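 Compounds tested in duplicate over 11-point 1:3 or 1:4 dilution series; no-enzyme wells as negative control. After 45 min at 25 °C, TFA quench with internal standard, and phosphorylated product quantified by RapidFire–QTrap mass spectrometry relative to the uninhibited reaction.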

Sequence of JAK2-JH1JH2 (O60674 532-1132): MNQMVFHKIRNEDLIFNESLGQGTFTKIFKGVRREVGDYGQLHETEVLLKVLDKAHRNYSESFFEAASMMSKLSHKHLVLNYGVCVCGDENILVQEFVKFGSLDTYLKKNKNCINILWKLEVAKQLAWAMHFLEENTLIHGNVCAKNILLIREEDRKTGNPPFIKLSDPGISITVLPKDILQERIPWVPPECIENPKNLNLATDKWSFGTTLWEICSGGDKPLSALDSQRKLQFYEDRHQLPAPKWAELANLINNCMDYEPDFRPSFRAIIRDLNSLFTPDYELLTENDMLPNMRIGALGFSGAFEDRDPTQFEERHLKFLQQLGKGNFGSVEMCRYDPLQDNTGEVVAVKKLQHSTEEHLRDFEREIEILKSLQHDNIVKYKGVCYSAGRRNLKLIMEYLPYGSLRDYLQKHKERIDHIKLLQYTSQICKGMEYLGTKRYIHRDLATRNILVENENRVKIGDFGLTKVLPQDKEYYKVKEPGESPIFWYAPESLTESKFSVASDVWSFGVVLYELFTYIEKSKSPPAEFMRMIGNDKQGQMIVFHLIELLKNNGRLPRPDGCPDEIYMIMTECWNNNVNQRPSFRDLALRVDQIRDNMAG
Sequence of JAK1-JH1JH2 (P23458 574-1154): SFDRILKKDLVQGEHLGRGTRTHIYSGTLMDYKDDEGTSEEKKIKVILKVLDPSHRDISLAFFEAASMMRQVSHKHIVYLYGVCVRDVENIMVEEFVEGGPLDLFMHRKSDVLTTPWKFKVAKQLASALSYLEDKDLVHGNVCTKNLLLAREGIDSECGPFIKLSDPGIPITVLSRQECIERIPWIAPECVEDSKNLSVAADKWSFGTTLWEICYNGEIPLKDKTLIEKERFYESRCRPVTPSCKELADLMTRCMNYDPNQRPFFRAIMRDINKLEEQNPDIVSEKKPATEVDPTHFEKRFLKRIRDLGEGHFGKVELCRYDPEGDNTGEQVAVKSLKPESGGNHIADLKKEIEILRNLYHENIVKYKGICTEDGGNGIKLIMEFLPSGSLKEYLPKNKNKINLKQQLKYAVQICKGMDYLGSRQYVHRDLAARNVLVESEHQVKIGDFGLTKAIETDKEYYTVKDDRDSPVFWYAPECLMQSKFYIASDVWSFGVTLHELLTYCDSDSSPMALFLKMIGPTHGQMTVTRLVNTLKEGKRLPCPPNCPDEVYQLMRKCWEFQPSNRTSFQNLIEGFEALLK
Sequence of JAK3-JH1JH2 (P52333 512-1124): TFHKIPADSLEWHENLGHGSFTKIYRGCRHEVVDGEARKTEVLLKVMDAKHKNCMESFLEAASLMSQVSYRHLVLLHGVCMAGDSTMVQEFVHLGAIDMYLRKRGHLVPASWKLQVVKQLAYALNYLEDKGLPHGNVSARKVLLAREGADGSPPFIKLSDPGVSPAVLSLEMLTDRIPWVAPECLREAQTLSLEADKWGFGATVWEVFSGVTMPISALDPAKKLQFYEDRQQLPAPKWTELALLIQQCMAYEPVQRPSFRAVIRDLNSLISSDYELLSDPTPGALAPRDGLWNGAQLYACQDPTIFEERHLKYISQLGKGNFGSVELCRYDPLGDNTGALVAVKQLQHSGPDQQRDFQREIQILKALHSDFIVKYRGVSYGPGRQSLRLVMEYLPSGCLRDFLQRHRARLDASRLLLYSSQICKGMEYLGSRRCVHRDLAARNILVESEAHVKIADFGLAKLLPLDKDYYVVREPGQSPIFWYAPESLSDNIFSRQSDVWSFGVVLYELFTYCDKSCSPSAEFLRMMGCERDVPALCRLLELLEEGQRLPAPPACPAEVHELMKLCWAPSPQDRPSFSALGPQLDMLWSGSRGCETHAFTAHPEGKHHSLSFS
Sequence of Tyk2-JH1JH2 (P29597 580-1182 C936A/C1142A): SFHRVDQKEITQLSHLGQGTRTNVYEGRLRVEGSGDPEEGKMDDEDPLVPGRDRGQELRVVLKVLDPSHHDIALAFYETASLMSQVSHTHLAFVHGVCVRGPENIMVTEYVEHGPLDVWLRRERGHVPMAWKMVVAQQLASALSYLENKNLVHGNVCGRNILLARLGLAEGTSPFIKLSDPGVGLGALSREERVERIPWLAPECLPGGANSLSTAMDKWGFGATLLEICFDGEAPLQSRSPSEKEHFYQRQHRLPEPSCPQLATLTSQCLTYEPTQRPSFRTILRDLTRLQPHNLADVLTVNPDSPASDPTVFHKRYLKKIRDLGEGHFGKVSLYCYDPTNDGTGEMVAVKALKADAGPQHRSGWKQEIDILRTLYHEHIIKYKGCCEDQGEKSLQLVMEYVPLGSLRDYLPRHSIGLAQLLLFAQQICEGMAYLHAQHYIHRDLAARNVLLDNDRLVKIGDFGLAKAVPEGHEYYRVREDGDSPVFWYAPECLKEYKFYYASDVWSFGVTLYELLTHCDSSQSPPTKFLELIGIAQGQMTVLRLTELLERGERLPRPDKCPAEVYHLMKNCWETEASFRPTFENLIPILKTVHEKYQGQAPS

Row | IC50 (JAK1-JH1JH2) [nM] | IC50 (JAK2-JH1JH2) [nM] | IC50 (Tyk2-JH1JH2) [nM] | IC50 (JAK3-JH1JH2) [nM] | Compound
1 | 1.1 | 54.4 | 13.9 | 926 | N#CC[C@H]1CC[C@H](n2c(CC(=O)N3CCC[C@@H]3CO)nc3cnc4[nH]ccc4c32)CC1 [Ex. 149, 2-((1r,4r)-4-(2-(2-((R)-2-(Hydroxymethyl)pyrrolidin-1-yl)-2-oxoethyl)imidazo[4,5-d]pyrrolo[2,3-b]pyridin-1(6H)-yl)cyclohexyl)acetonitrile]
2 | 1.2 | 10 | 34 | 110 | CC(C)/C(N)=N/OCc1nc2cnc3[nH]ccc3c2n1[C@H]1CC[C@H](CC#N)CC1 [Ex. 150, (Z*)—N-((1-((1r,4r)-4-(Cyanomethyl)cyclohexyl)-1,6-dihydroimidazo[4,5-d]pyrrolo[2,3-b]pyridin-2-yl)methoxy)isobutyrimidamide]
3 | 1.4 | 10.6 | 37.1 | 103 | N#CC[C@H]1CC[C@H](n2c(CO/N=C(\N)C3CC3)nc3cnc4[nH]ccc4c32)CC1 [Ex. 151, (Z*)—N-((1-((1r,4r)-4-(Cyanomethyl)cyclohexyl)-1,6-dihydroimidazo[4,5-d]pyrrolo[2,3-b]pyridin-2-yl)methoxy)cyclopropanecarboximidamide]
4 | 2.8 | 21.2 | 53.5 | 803 | N#CC[C@H]1CC[C@H](n2c(CO/N=C(\N)C34CC5CC(CC(C5)C3)C4)nc3cnc4[nH]ccc4c32)CC1 [Ex. 152, (3R,5R,7R,E*)-N′-((1-((1r,4r)-4-(Cyanomethyl)cyclohexyl)-1,6-dihydroimidazo[4,5-d]pyrrolo[2,3-b]pyridin-2-yl)methoxy)adamantane-1-carboximidamide]
5 | 1.3 | 48.5 | 20.1 | 368 | N#CC[C@H]1CC[C@H](n2c(CNC(=O)NCC3CCCCC3)nc3cnc4[nH]ccc4c32)CC1 [Ex. 155, 1-((1-((1r,4r)-4-(Cyanomethyl)cyclohexyl)-1,6-dihydroimidazo[4,5-d]pyrrolo[2,3-b]pyridin-2-yl)methyl)-3-(cyclohexylmethyl)urea]
6 | 1.3 | 33.6 | 2.9 | 1320 | N#CC[C@H]1CC[C@H](n2c(CNC(=N)C34CC5CC(CC(C5)C3)C4)nc3cnc4[nH]ccc4c32)CC1 [Ex. 156, (3R,5R,7R)—N-((1-((1r,4r)-4-(Cyanomethyl)cyclohexyl)-1,6-dihydroimidazo[4,5-d]pyrrolo[2,3-b]pyridin-2-yl)methyl)adamantane-1-carboximidamide]
7 | 1.4 | 74.9 | 39.5 | 1110 | N#CCCC(=O)NCc1nc2cnc3[nH]ccc3c2n1[C@H]1CC[C@H](CC#N)CC1 [Ex. 157, 3-Cyano-N-((1-((1r,4r)-4-(cyanomethyl)cyclohexyl)-1,6-dihydroimidazo[4,5-d]pyrrolo[2,3-b]pyridin-2-yl)methyl)propanamide]
8 | 1.4 | 77.9 | 59.5 | 630 | CC(C)(C)OC(=O)NCc1nc2cnc3[nH]ccc3c2n1[C@H]1CC[C@H](CC#N)CC1 [Ex. 158, tert-Butyl ((1-((1r,4r)-4-(Cyanomethyl)cyclohexyl)-1,6-dihydroimidazo[4,5-d]pyrrolo[2,3-b]pyridin-2-yl)methyl)carbamate]
9 | 1.6 | 57 | 19 | 1230 | N#CC[C@H]1CC[C@H](n2c(C3CNC3)nc3cnc4[nH]ccc4c32)CC1 [Ex. 159, 2-((1r,4r)-4-(2-(Azetidin-3-yl)imidazo[4,5-d]pyrrolo[2,3-b]pyridin-1(6H)-yl)cyclohexyl)acetonitrile]
10 | 1.5 | 87.1 | 52.4 | 1080 | N#CCC(=O)N1CC(c2nc3cnc4[nH]ccc4c3n2[C@H]2CC[C@H](CC#N)CC2)C1 [Ex. 160, 3-(3-(1-((1r,4r)-4-(Cyanomethyl)cyclohexyl)-1,6-dihydroimidazo[4,5-d]pyrrolo[2,3-b]pyridin-2-yl)azetidin-1-yl)-3-oxopropanenitrile]
11 | 1.6 | 20 | 20 | 260 | COCCNC(=O)OCc1nc2cnc3[nH]ccc3c2n1[C@H]1CC[C@H](CC#N)CC1 [Ex. 161, (1-((1r,4r)-4-(Cyanomethyl)cyclohexyl)-1,6-dihydroimidazo[4,5-d]pyrrolo[2,3-b]pyridin-2-yl)methyl (2-methoxyethyl)carbamate]
12 | 1.6 | 113 | 81.7 | 2270 | C[S@](=O)(=NCc1nc2cnc3[nH]ccc3c2n1[C@H]1CC[C@H](CC#N)CC1)c1ccccc1 [Ex. 162, 2-((1r,4r)-4-(2-((((R)-Methyl(oxo)(phenyl)-λ^6-sulfanylidene)amino)methyl)imidazo[4,5-d]pyrrolo[2,3-b]pyridin-1(6H)-yl)cyclohexyl)acetonitrile]
13 | 3.2 | 21.2 | 60.8 | 864 | C[S@@](=O)(=NCc1nc2cnc3[nH]ccc3c2n1[C@H]1CC[C@H](CC#N)CC1)c1ccccc1 [Ex. 163, 2-((1r,4r)-4-(2-((((S)-methyl(oxo)(phenyl)-λ^6-sulfanylidene)amino)methyl)imidazo[4,5-d]pyrrolo[2,3-b]pyridin-1(6H)-yl)cyclohexyl)acetonitrile]
14 | 1.6 | 125 | 174 | 2150 | CC(=O)N1CCC(c2nc3cnc4[nH]ccc4c3n2[C@H]2CC[C@H](CC#N)CC2)CC1 [Ex. 164, 2-((1r,4r)-4-(2-(1-Acetylpiperidin-4-yl)imidazo[4,5-d]pyrrolo[2,3-b]pyridin-1(6H)-yl)cyclohexyl)acetonitrile]
15 | 1.7 | 122 | 30.5 | 2700 | N#CC[C@H]1CC[C@H](n2c(Cn3c(C4CC4)noc3=O)nc3cnc4[nH]ccc4c32)CC1 [Ex. 165, 2-((1r,4r)-4-(2-((3-Cyclopropyl-5-oxo-1,2,4-oxadiazol-4(5H)-yl)methyl)imidazo[4,5-d]pyrrolo[2,3-b]pyridin-1(6H)-yl)cyclohexyl)acetonitrile]
16 | 1.8 | 17 | 37.3 | 144 | N#CC[C@H]1CC[C@H](n2c(-c3cnn(Cc4cocn4)c3)nc3cnc4[nH]ccc4c32)CC1 [Ex. 166, 2-((1r,4r)-4-(2-(1-(Oxazol-4-ylmethyl)-1H-pyrazol-4-yl)imidazo[4,5-d]pyrrolo[2,3-b]pyridin-1(6H)-yl)cyclohexyl)acetonitrile]
17 | 2 | 34.2 | 30.7 | 1570 | CC(C)(O)CN1CCC(c2nc3cnc4[nH]ccc4c3n2[C@H]2CC[C@H](CC#N)CC2)CC1 [Ex. 168, 2-((1r,4r)-4-(2-(1-(2-Hydroxy-2-methylpropyl)piperidin-4-yl)imidazo[4,5-d]pyrrolo[2,3-b]pyridin-1(6H)-yl)cyclohexyl)acetonitrile]
18 | 2 | 30.7 | 104 | 5640 | C#Cc1ccc(C(=O)c2ccc(-c3nc4cnc5[nH]ccc5c4n3[C@H]3CC[C@H](CC#N)CC3)cc2)cc1 [Ex. 169, 2-((1r,4r)-4-(2-(4-(4-Ethynylbenzoyl)phenyl)imidazo[4,5-d]pyrrolo[2,3-b]pyridin-1(6H)-yl)cyclohexyl)acetonitrile]
19 | 1.5 | 80.9 | 26.4 | > 12500 | C#Cc1ccc(C(=O)c2ccc(CCc3nc4cnc5[nH]ccc5c4n3[C@H]3CC[C@H](CC#N)CC3)cc2)cc1 [Ex. 170, 2-((1r,4r)-4-(2-(4-(4-Ethynylbenzoyl)phenethyl)imidazo[4,5-d]pyrrolo[2,3-b]pyridin-1(6H)-yl)cyclohexyl)acetonitrile]
20 | 2 | 33.9 | 18.8 | 211 | CC(C)NC(=O)NCc1nc2cnc3[nH]ccc3c2n1[C@H]1CC[C@H](CC#N)CC1 [Ex. 171, 1-((1-((1r,4r)-4-(Cyanomethyl)cyclohexyl)-1,6-dihydroimidazo[4,5-d]pyrrolo[2,3-b]pyridin-2-yl)methyl)-3-isopropylurea]
21 | 2.1 | 75.2 | 53.5 | 3060 | CC(C)NC(=O)c1nc2cnc3[nH]ccc3c2n1[C@H]1CC[C@H](CC#N)CC1 [Ex. 172, 1-((1r,4r)-4-(Cyanomethyl)cyclohexyl)-N-isopropyl-1,6-dihydroimidazo[4,5-d]pyrrolo[2,3-b]pyridine-2-carboxamide]
22 | 1.3 | 28 | 55.9 | 732 | COCCCNC(=O)c1nc2cnc3[nH]ccc3c2n1[C@H]1CC[C@H](CC#N)CC1 [Ex. 173, 1-((1r,4r)-4-(Cyanomethyl)cyclohexyl)-N-(3-methoxypropyl)-1,6-dihydroimidazo[4,5-d]pyrrolo[2,3-b]pyridine-2-carboxamide]
23 | 2.2 | 57.2 | 55.2 | 604 | N#CC[C@H]1CC[C@H](n2c(C(=O)NCC3CC3)nc3cnc4[nH]ccc4c32)CC1 [Ex. 174, 1-((1r,4r)-4-(cyanomethyl)cyclohexyl)-N-(cyclopropylmethyl)-1,6-dihydroimidazo[4,5-d]pyrrolo[2,3-b]pyridine-2-carboxamide]
